US20200123620A1, “MiRNA-574-5p AS A BIOMARKER FOR STRATIFICATION OF PROSTAGLANDIN E-DEPENDENT TUMORS” (priority 2017, published 2020)

Experiments:
Format in all cases: cell-based, human
A549 cells = experiment: MTT cell proliferation assay; conditions: data not shown
Protocol: For the detection of viable cells, an MTT (3-(4,5-dimethylthiazol-2-yl)-2,5-diphenyltetrazolium bromide) tetrazolium (Carl Roth, Karlsruhe, GER) reduction assay was performed. 24 h prior transfection, A549 cells were seeded at a density of 1×10^4 cells per well in 96-well plates. For the MTT reduction assay, 20 μl of 5 mg/ml MTT (in PBS) was added to the cells in culture and so incubated for 4 h. The medium was removed and 100 μl DMSO (Carl Roth, Karlsruhe, GER) was added. The quantity of formazan was measured by recording changes in the absorbance at 570 nm using a plate reading spectrophotometer. As a reference the wavelength of […] was used to correct for nonspecific background.

mPGES-1 = mPGES-1 expression in transfected A549 cells (qRT-PCR, Western blot); conditions: IL-1β 24 h, then 24 h stimulus-free medium
Protocol: (§1) CUGBP1 and GW182 were transiently depleted using siRNA oligonucleotides. 24 h prior to transfection, A549 cells were seeded at a density of 5×10^5 cells/well in a 6-well plate. 20 pmol/μl siRNA oligonucleotides were transfected using Lipofectamine 2000N (Invitrogen, Karlsruhe, GER) according to manufacturer's instructions. For GW182 knockdown, MISSION® siRNA SAS1_Hs01_00244664 (Sigma-Aldrich, Darmstadt. GER) were used, respectively. For CUGBP1 knockdown a previously published siRNA (5′-GCUGUUUAUUGGUAUGAUU-3′; SEQ ID NO:5) was used for our experiments. As control, a siRNA with an unspecific sequence was used (5′-UCUCUCACAACGGGCAUUU-3′; SEQ ID NO: 6). Cells were harvested 24 h and 48 h after transfection. The efficiency of CUGBP1 and GW182 knockdown was determined by qRT-PCR, Western blot and immunofluorescence staining.
24 h prior to transfection, A549 cells were seeded at a density of 5×10^5 per well in a 6-well plate. 20 pmol/μl miRIDIAN miR-574-5p mimics (HM10794, Sigma-Aldrich, Darmstadt, GER) or negative control (HMC0002, Sigma-Aldrich, Darmstadt, GER) were transfected using Lipofectamine 2000® according to the manufacturer's instructions. In the same way, the A549 cells were transfected with 40 pmol/μl miR-574-5p-LNA™ inhibitor (4101451-001) or negative control (199006-001, Exiqon, Kopenhagen, DEN) for the knockdown of miR-574-5p. The transfection efficiency was determined by qRT-PCR.
(§2) 1 μg of DNase-treated RNA was used for reverse transcription using High-Capacity RNA-to-cDNA Kit (Applied Biosystems, ThermoFisher Scientific, Waltham, USA) according to manufacturer's instructions. […] 1 μl cDNA (1:2 diluted) was used per reaction. β-Actin was used as endogenous control to normalize variations in cDNA quantities in different samples.
(§3) To obtain a whole cell lysate, A549 cells were lysed in T-PER™ tissue protein extraction reagent (Life Technologies, ThermoFisher Scientific, Waltham, USA) for 30 min at 4° C. […] The protein content was determined by Bradford assay (BioRad Laboratories, Hercules, USA). […]

COX-2 = COX-2 expression in transfected A549 cells (qRT-PCR, Western blot); conditions: mRNA and protein
Protocol: as §1, with “Cells were harvested 24 h and 48 h after transfection.” left out
as §2, §3

5′-GCUGUUUAUUGGUAUGAUU-3′ (listed as RNA, chemistry not given here) [ΔCUGBP1]
IL1β-induced cell proliferation of A549 cells (A549 cells): enhanced | mPGES-1 protein expression (mPGES-1; Western blot): strongly upregulated | mPGES-1 3′UTR isoform expression (mPGES-1; qRT-PCR): further increases | mPGES-1 mRNA expression (mPGES-1; qRT-PCR): significantly upregulates | COX-2 level (COX-2): uninfluenced
